Results on two compounds are retold here after article PMC5519068 (PLoS ONE, 2017).

The structures appear in SMILES notation. Read-outs that look alike come from different tables or passages of the source.

One experiment concerns TF-1/Flt3-D835Y cells. The experiment is described as follows: Inhibitor sensitivity of TF-1 cell populations, CellTiter-Blue, 72 h. In kind it is cell-based, human. As to the method: (§1) Cells were seeded at a density of 100,000 cells per 1.0 ml in 48-well culture plates. Compounds were added to various concentrations while holding the DMSO concentration constant at 0.1%. Cell viability was assessed 72 hours later using the CellTiter-Blue Cell Viability assay (Promega) according to the manufacturer’s protocol and a SpectraMax Multi-Mode Microplate Reader (Molecular Devices). IC50 values were determined by non-linear regression analysis of concentration-response curves using the GraphPad PRISM software package (version 6.0). Apoptosis was determined using the same cell culture conditions and the Apo-ONE Homogeneous Caspase-3/7 Assay (Promega) and the manufacturer’s protocol.
(§2) For each retroviral transduction, TF-1 cells (1 x 10^6) were suspended in 5 mL of undiluted viral supernatant and plated in one well of a 6-well tissue culture dish. Polybrene (Sigma) was added to a final concentration of 4 μg/mL and the TF-1 cells were centrifuged at 1000 x g for 3 hours to enhance retroviral mediated gene transfer. After centrifugation, the virus was removed and replaced with fresh medium.
(§3) Raw fluorescence data were corrected for background and then normalized to cultures grown in the presence of the DMSO carrier solvent. Each condition was performed in triplicate, and results are presented as the mean of the normalized values ± the SD. The resulting dose-response curves were fitted by non-linear regression analysis for estimation of the IC50 values (see Table 2). […] Fes and Flt3 kinase proteins were then immunoprecipitated from cell lysates followed by immunoblotting with antibodies to phosphotyrosine (pTyr), the Fes activation loop phosphotyrosine (pY713), as well as the Flt3 and Fes proteins.

For the next experiment, the system named is TF-1/Flt3-ITD cells. The description is as above. It counts as cell-based, human. Here is the method: as §1, §2, §3
Experiment [1] deals with TF-1 cells transduced with an empty retroviral vector (Control). The experiment is described as above. In kind it is cell-based, human. To be noted: Homo sapiens, TF-1; empty vector control, 72 h. As to the method:
as §1, §2, §3

The next experiment deals with Flt3. Details: method as in PMID 22520759. The following applies: cited from earlier work.
In another experiment the test system is MOLM-13 cells. The experiment is described as follows: Growth inhibition, CellTiter-Blue viability, 72 h. It counts as cell-based. The following applies: Homo sapiens, MOLM-13 (Flt3-ITD+), read-out: Growth Suppression in AML Cell Lines (IC50, nM) MOLM-13. As to the method:
as §1
(§4) Fig 2 Fes tyrosine kinase inhibitors induce growth arrest in Flt3-ITD^+ AML cell lines. A) The Flt3-ITD^+ cell lines MV4-11, MOLM-13, and MOLM-14, along with THP-1 (wild-type FLT3) were incubated with each of the kinase inhibitors shown over a range of concentrations, and cell viability was measured 72 h later using the CellTiter-Blue Assay (see Materials and methods). Raw fluorescence data were corrected for background and then normalized to cultures grown in the presence of the DMSO carrier solvent. Each assay condition was performed in triplicate, and results are presented as the mean of the normalized values ± the SD. The resulting dose-response curves were fitted by non-linear regression analysis, and the resulting IC50 values are shown in Table 1.
(In general: Alamar Blue is a resazurin reagent that responds to reducing activity.)

For the next experiment, the system named is MV4-11 cells. The experiment is described as follows: Growth inhibition, CellTiter-Blue viability, 72 h. The following applies: Homo sapiens, MV4-11 (Flt3-ITD+), read-out: Growth Suppression in AML Cell Lines (IC50, nM) MV4-11. It counts as cell-based. Here is the method:
as §1, §4

The test system of a further experiment is MOLM-14 cells. Put plainly: Growth inhibition, CellTiter-Blue viability, 72 h. In kind it is cell-based. To be noted: Homo sapiens, MOLM-14 (Flt3-ITD+), read-out: Growth Suppression in AML Cell Lines (IC50, nM) MOLM-14. As to the method: as §1, §4
In the next experiment the test system is THP-1 cells. The experiment is described as follows: Growth inhibition, CellTiter-Blue viability, 72 h. To be noted: Homo sapiens, THP-1 (wild-type Flt3), read-out: Growth Suppression in AML Cell Lines (IC50, nM) THP-1. It counts as cell-based. Here is the method:
as §1, §4

For experiment [2], the system named is bone marrow mononuclear cells from normal donors. The experiment is described as follows: Apoptosis by flow cytometry for cell-surface phosphatidylserine in normal cells (non-specific cytotoxicity). It counts as cell-based, human. To be noted: 3 μM; three normal donors. On the technique in general: A flow cytometer gives signals particle by particle.
Method: Cells were then analyzed on a BD Accuri C6 Flow cytometer and the resulting data were evaluated using the BD CSampler software.
The presence of apoptotic cells was then assayed 48 and 72 h later by flow cytometry for cell-surface phosphatidylserine. […] To assess non-specific cytotoxicity, bone marrow mononuclear cells from three normal donors were cultured and treated with inhibitors under identical conditions, followed by flow cytometry for apoptotic cells.

By IC50 is commonly meant the concentration at which inhibition is half-maximal.

Regarding `CCN1CCN(Cc2ccc(NC(=O)c3ccc(C)c(Oc4ccnc5[nH]ccc45)c3)cc2C(F)(F)F)CC1` [HG7-92-01], the “Activity on TF-1/Flt3-D835Y cell growth” value in the experiment on TF-1/Flt3-D835Y cells (72 h) is “devoid of activity”. Moreover, the IC50 was more than 1000 nM in the experiment with TF-1/Flt3-D835Y cells (Homo sapiens, TF-1, 72 h; read-out: Inhibitor sensitivity of TF-1 Cell Populations (IC50, nM) Flt3-D835Y); 29 nM with TF-1/Flt3-ITD cells (Homo sapiens, TF-1, 72 h; read-out: Inhibitor sensitivity of TF-1 Cell Populations (IC50, nM) Flt3-ITD); more than 1000 nM in experiment [1]; 93 nM in the experiment on MOLM-13 cells; 19 nM in the experiment with MV4-11 cells; 34 nM in the experiment with MOLM-14 cells. Besides, the IC50 in the experiment with THP-1 cells is more than 3000 nM. Moreover, the “KINOMEscan binding to Flt3” value at Flt3 is recorded as “bind to a wider range of kinases (including Flt3)”. In addition, the “Increase in apoptosis in normal bone marrow mononuclear cells” value in experiment [2] is on record as not above 10%.
As for `COc1cc(N2CCC(O)CC2)ccc1Nc1nc(Nc2ccccc2S(=O)(=O)C(C)C)c2cn[nH]c2n1` [WZ4-49-1], the IC50 was 597 nM in the experiment on TF-1/Flt3-D835Y cells (Homo sapiens, TF-1, 72 h, read-out: Inhibitor sensitivity of TF-1 Cell Populations (IC50, nM) Flt3-D835Y); 466 nM with TF-1/Flt3-ITD cells (Homo sapiens, TF-1, 72 h, read-out: Inhibitor sensitivity of TF-1 Cell Populations (IC50, nM) Flt3-ITD); more than 3000 nM in experiment [1]; 884 nM in the experiment on MOLM-13 cells; 965 nM with MV4-11 cells; 994 nM in the experiment on MOLM-14 cells. Moreover, in the experiment on THP-1 cells, the IC50 is more than 3000 nM. Besides, the “Potency in TF-1/Flt3-ITD cells compared to the Flt3-ITD+ AML cells” value with TF-1/Flt3-ITD cells (growth inhibition) is “about two-fold higher”.
